Numbers after ± are expanded uncertainties.
Conditions: 101.33 kPa, Liquid

CCOS(=O)(=O)[O-].CCn1cc[n+](C)c1 [1-ethyl-3-methylimidazolium ethyl sulfate]
Conditions	mass density [kg/m3]
278.2 K	1243 ± 6.1
288.2 K	1236.2 ± 6
298.2 K	1229.6 ± 5.9
308.2 K	1223 ± 5.8
318.2 K	1216.2 ± 5.7
328.2 K	1209.9 ± 5.7
338.2 K	1203.7 ± 5.6
